pKd: −log10 of the molar value. Read-outs that look alike come from different tables or passages of the source.
Legend:
[1] = Ultraviolet-visible and fluorescence spectroscopy of the probes; assay type: physicochemical; details: for Quantum yield: 0.2 M sodium phosphate buffer pH 7.4
Protocol: (§1) Glutathione was reacted with the fluorescent probe 2Me SiR600 (compound 1) synthesized in Example 1, and fluorescence assay was conducted. A Shimadzu UV-2450 (Shimadzu Corporation) and a Hitachi F-7000 (Hitachi, Ltd.) were used in ultraviolet-visible spectroscopy and fluorescence spectroscopy. A fluorescent probe was diluted to a final concentration of 1 μM in 0.2 M sodium phosphate buffer (pH 7.4), containing 0.1-1% DMSO. The absorption spectrum and fluorescence spectrum were measured when various concentration of glutathione was added in the range of 1 μM-100 mM. The excitation wavelength was 590 nm.

[2] = system: intracellular glutathione in cultured cancer cells; experiment: Cell imaging in cultured cancer cells by confocal microscope; assay type: cell-based; details: for change in fluorescence intensity ratio in cells: NEM addition, FIGS. 8 and 9
Protocol: Next, cell imaging in cultured cancer cells was conducted using compound 1 (2Me SiR600) as a fluorescent probe. Measurement was conducted using a confocal microscope.
Fluorescence imaging in cultured cancer cells was conducted in the same way as in Example 4 using compound 8 (2Me SiR600-TMR) as the fluorescent probe (FIG. 8).

[3] = Fluorescence assay for glutathione: Kd from absorption/fluorescence change on glutathione addition; assay type: binding
Protocol: as §1

[4] = Table 1, 1 μM probe, 0.2 M sodium phosphate buffer pH 7.4, 0.1-1% DMSO
[5] = Table 1, dissociation constant for glutathione, calculated from changes in the fluorescence spectrum, pH 7.4, read-out: Kd
[6] = Table 2, same conditions as Example 2
[7] = Table 2, dissociation constant for glutathione, same conditions as Example 2, read-out: Kd

Structure (SMILES) | Absorption peak [nm] [1, 4] [nm] | Fluorescence peak [nm] [1, 4] [nm] | Quantum yield ([1]; Table 1) | pKd [3, 5] | Absorption peak [nm] [1, 6] [nm] | Fluorescence peak [nm] [1, 6] [nm] | Fluorescence quantum yield [1, 6] | pKd [3, 7] | also measured
Cc1ccccc1C1=C2C=CC(=N)C=C2[Si](C)(C)c2cc(N)ccc21 [Compound 1, 2Me SiR600] | 593 | 613 | 0.38 | 2.96 |  |  |  |  | change in fluorescence intensity in cells ([2]; glutathione depletion due to N-ethylmaleimide (NEM) addition, FIG. 4): an increase in fluorescence intensity was found; pKd ([3]; from values at absorption peak wavelength (593 nm) against glutathione concentration, read-out: dissociation constant Kd): 3.00; pKd ([3]; from values at fluorescence peak wavelength (614 nm) against glutathione concentration, excitation 590 nm, read-out: dissociation constant Kd): 2.96
CN(C)c1ccc2c(c1)[Si](C)(C)C1=CC(=[N+](C)C)C=CC1=C2c1ccccc1 [Compound 2, Ph SiR650] | 645 | 668 | 0.14 | 3.05 |  |  |  |  | 
COc1ccccc1C1=C2C=CC(=[N+](C)C)C=C2[Si](C)(C)c2cc(N(C)C)ccc21 [Compound 3, 2OMe SiR650] | 649 | 672 | 0.37 | 1.39 |  |  |  |  | 
CN(C)c1ccc2c(c1)[Si](C)(C)C1=CC(=[N+](C)C)C=CC1=C2c1ccccc1O [Compound 4, 2OH SiR650] | 648 | 672 | 0.31 | 1.37 |  |  |  |  | 
CN(C)c1ccc2c(c1)[Si](C)(C)C1=CC(=[N+](C)C)C=CC1=C2c1ccccc1C#N [Compound 5, 2CN SiR650] | 658 | 683 | 0.25 | 2.92 |  |  |  |  | 
COc1ccccc1C1=c2cc3c(cc2[Si](C)(C)c2cc4c(cc21)OCCN4C)=[N+](C)CCO3 [Compound 6, 2OMe OxaSiR diMe] | 699 | 740 | 0.08 | 3.15 |  |  |  |  | 
CN1CCOc2cc3c(cc21)[Si](C)(C)c1cc2c(cc1=C3c1ccccc1O)OCC[N+]=2C [Compound 7, 2OH OxaSiR diMe] | 699 | 739 | 0.07 | 3.05 |  |  |  |  | 
Cc1cc(C(=O)NC2CCC(NC(=O)c3ccc(-c4c5ccc(=[N+](C)C)cc-5oc5cc(N(C)C)ccc45)c(C(=O)[O-])c3)CC2)ccc1C1=C2C=CC(=N)C=C2[Si](C)(C)c2cc(N)ccc21 (stereo not drawn) [Compound 8, 2Me SiR600-TMR] |  |  |  |  |  |  |  |  | change in fluorescence intensity ratio in cells [2]: change in fluorescence intensity ratio observed
COC(=O)c1cc(C(=O)NC2CCC(NC(=O)c3ccc(C4=C5C=CC(=N)C=C5[Si](C)(C)c5cc(N)ccc54)c(C)c3)CC2)ccc1-c1c2ccc(=[N+](C)C)cc-2oc2cc(N(C)C)ccc12 (stereo not drawn) [Compound 9, 2Me SiR600-TMR(Me)] |  |  |  |  |  |  |  |  | change in fluorescence intensity ratio in cells [2]: change in fluorescence intensity ratio due to NEM addition was also observed
CCc1ccccc1C1=C2C=CC(=N)C=C2[Si](C)(C)c2cc(N)ccc21.O=C(O)C(F)(F)F [Compound 11] |  |  |  |  | 592 | 614 | 0.44 | 2.64 | 
CN=C1C=CC2=C(c3ccccc3OC)c3ccc(NC)cc3[Si](C)(C)C2=C1.O=C(O)C(F)(F)F [Compound 16] |  |  |  |  | 620 | 643 | 0.34 | 1.80 | 
CN=C1C=CC2=C(c3ccccc3O)c3ccc(NC)cc3[Si](C)(C)C2=C1.O=C(O)C(F)(F)F [Compound 17] |  |  |  |  | 620 | 643 | 0.22 | 1.68 | 
CN(C)c1ccc2c(c1)[Si](C)(C)C1=CC(=[N+](C)C)C=CC1=C2c1ccccc1F [Compound 18] |  |  |  |  | 655 | 677 | 0.19 | 2.89 | 
CN(C)c1ccc2c(c1)[Si](C)(C)C1=CC(=[N+](C)C)C=CC1=C2c1cccc(C(F)(F)F)c1 [Compound 21] |  |  |  |  | 650 | 673 | 0.20 | 3.22 | 
CN(C)c1ccc2c(c1)[Si](C)(C)C1=CC(=[N+](C)C)C=CC1=C2c1ccc(C(F)(F)F)cc1 [Compound 22] |  |  |  |  | 650 | 673 | 0.16 | 3.30 | 
CN(C)c1ccc2c(c1)[Si](C)(C)C1=CC(=[N+](C)C)C=CC1=C2c1ccccc1Cl [Compound 23] |  |  |  |  | 655 | 676 | 0.30 | 1.57 | 
Cc1ccccc1C1=C2C=CC(=[N+](C)C)C=C2[Si](C)(C)c2cc(N)ccc21 [Compound 26] |  |  |  |  | 620 | 643 | 0.14 | 1.82 | 
Cc1ccccc1C1=c2cc3c(cc2[Si](C)(C)c2cc4c(cc21)OCCN4C)=[N+](C)CCO3 [Compound 27] |  |  |  |  | 695 | 738 | 0.06 | 2.68 | 
